Experimental data from patent US20240285726A1, “Bacteriocin for new application” (Syngulon S.A., priority 2021, published 2024).
“Also recorded” adds a separate entry of the source. Ends that are not written are not given here.

How the values were obtained:
S. aureus ATCC 6538 [1] = experiment: Antimicrobial activity test on inoculated M17 agar plates (inhibition halo); assay type: cell-based, Staphylococcus aureus; conditions: for antimicrobial activity of variants (inhibition halo): 5 μl of 1 mg/ml aqueous solution on M17 agar plates of S. aureus ATCC 6538, overnight incubation, compared with SEQ ID NO: 1
Method: (§1) Bacterial strains were grown overnight in liquid culture on rotary shakers or on agar plates using M17 media supplemented with 0.5% glucose. S. aureus ATCC 6538 and S. epidermidis ATCC 12228 liquid cultures and agar plates were grown anaerobically at 37° C. Culture volume utilized in MIC assays was 200 μl.
(§2) Antimicrobial activities of bacteriocins were tested on M17 agar plates in Examples 1 and 3. In Example 1, 2 μl of bacteriocin peptide (SEQ ID NO: 1) aqueous solutions at a concentration of 1 mg/ml were deposited on inoculated M17 agar plates of S. aureus ATCC 6538 and S. epidermidis ATCC 12228. An equivalent amount of aureocin A53 aqueous solution (1 mg/ml concentration) was used as positive control. In the case of S. epidermidis ATCC 12228, an equivalent amount of pediocin A1 aqueous solution (1 mg/ml concentration) was used as negative control.
In Example 3, 5 μl of bacteriocin peptides (SEQ ID NO: 1, 3-97) aqueous solutions at a concentration of 1 mg/ml were deposited on inoculated M17 agar plates of S. aureus ATCC 6538. After overnight incubation, the presence of an inhibition halo was considered as a positive result of antimicrobial activity.

[2] = test system: S. epidermidis ATCC 12228; experiment: as above; assay type: cell-based, Staphylococcus epidermidis; conditions: 2 μl of 1 mg/ml aqueous solution on inoculated M17 agar plate, overnight incubation
Method: as §1, §2

S. aureus ATCC 6538 [3] = experiment: MIC assay in liquid cultures (endpoint OD600); assay type: cell-based, Staphylococcus aureus; conditions: calculated as average concentration between wells 10 and 11
Method: as §1
(§3) Determination of bacteriocin (SEQ ID NO: 1) MIC values was performed in liquid cultures. Growth was assessed by measuring endpoint OD600 values in a Spectramax i3 (Molecular Devices, CA, USA). Minimum inhibitory concentration (MIC) was defined as the lowest concentration of bacteriocin which inhibited 50% of the growth of cultures as compared to reference cultures not exposed to the bacteriocin. Concentration of the bacteriocin in well 11 was 250 μg/ml in the case of S. aureus ATCC 6538 and 500 μg/ml in the case of S. epidermidis ATCC 12228, diluted 2-fold per subsequent well as shown in Table 3 (concentrations rounded to the second decimal): […]

[4] = test system: S. epidermidis ATCC 12228; experiment: MIC assay in liquid cultures (endpoint OD600); assay type: cell-based, Staphylococcus epidermidis; conditions: liquid culture, concentrations 0.49 to 500 μg/ml
Method: as §1, §3

Row | Substance | antimicrobial activity of variants (inhibition halo) (S. aureus ATCC 6538 [1]) | inhibition halo on agar plate [2] | also measured
1 | MAFLKLVAKLGPKAAKWAWANKGKVLGWIRDGLAIDWIINKINDIVN [SEQ ID NO: 54] | did not compromise its antimicrobial activity | – | –
2 | MLAFLKLVAKLGPKAAKWAWANKGKVLGWIRDGLAIDWIINKINDIVN [SEQ ID NO: 1] | – | no inhibition halo was visible; also recorded: no inhibition halo was present | inhibition halo on agar plate (S. aureus ATCC 6538 [1]; 2 μl of 1 mg/ml aqueous solution on inoculated M17 agar plate, overnight incubation, S. aureus ATCC 6538): An inhibition halo was visible; MIC (lowest concentration inhibiting 50% of culture growth) (S. aureus ATCC 6538 [3]): 188 µg/mL; growth inhibition in MIC assay [4]: No growth inhibition was observed
3 | MLAFLKLVAKLGPKAAKWAWANKGKVLGWIRDGLAIINKINDIVN [SEQ ID NO: 62] | did not compromise its antimicrobial activity | – | –
4 | MLFLKLVAKLGPKAAKWAWANKGKVLGWIRDGLAIDWIINKINDIVN [SEQ ID NO: 55] | did not compromise its antimicrobial activity | – | –
5 | aureocin A53 [reference compound] | – | an inhibition halo was present | –
6 | pediocin A1 [reference compound] | – | no inhibition halo was visible | –
